# Measured values published in patent publication US5656603A (Loyola University of Chicago, priority 1995, dated 1997).
# Where “and” joins values, the source holds several entries; their conditions need not be identical. Identical values can stand only once. Entries after “also recorded” stand apart in the source; their conditions may differ.
# Experiments:
# [1] = isolated perfused rat lung, modified Krebs buffer; settings: Male Sprague Dawley rats, 35° C.
# [2] = target: T1, partially purified human lung membrane-bound aminopeptidase P (Homo sapiens, UniProt O43895); assay: Aminopeptidase P inhibition, release of arginine from Arg-Pro-Pro (fluorescent assay); assay type: biochemical; settings: human lung aminopeptidase P; for IC50: cleavage of 0.5 μM Arg-Pro-Pro in 0.1M Hepes, pH 8.0 at 37° C.
# T1 construct: from tissue; host or cells: human lung microsomes
# Description: The IC50 of the compound of the present invention in relation to aminopeptidase P was also determined. […] The specificity of the compound of the present invention for other aminopeptidases was similarly determined as described in the Experimental Procedures herein.
# (§1) Enzymes--Membrane-bound aminopeptidase P was purified to homogeneity from bovine lung (14) and from rat lung. Partially purified membrane-bound aminopeptidase P from human lung was obtained by treatment of lung microsomes with phosphatidylinositol-specific phospholipase C (B. thuringiensis) (ICN, Costa Mesa, Calif.) followed by centrifugation as described previously (14). Membrane dipeptidase was purified from rat lung microsomes (manuscript in preparation). Recombinant E. coli aminopeptidase P (22) and purified lamb kidney prolyl oligopeptidase (23) were generally supplied by Dr. Tadashi Yoshimoto (Nagasaki University). Purified porcine kidney prolidase and purified porcine kidney aminopeptidase M was obtained from Sigma (St. Louis, Mo.).
# Enzyme Kinetics--Aminopeptidase P activity was determined by measuring the release of arginine from Arg-Pro-Pro by a fluorescent assay described previously (14). […] Each mixture was run in duplicate. Aliquots were removed from each incubation mixture at various times and assayed for the amount of arginine present to determine the reaction velocity. In general, reaction velocities were calculated from data representing less than 20% cleavage of substrate. Ki and Ki ' (=αKi) were determined from plots of 1/v versus concentration of inhibitor "i" (26) and S/v versus concentration of inhibitor "i" (27), respectively. These parameters were also determined from the slope replot and 1/v-intercept replot, respectively, of the 1/v versus 1/S plot (28). […] The values from the two treatments of the data were averaged for each experiment. Experiments for each enzyme preparation were performed twice and the results averaged.
# [3] = target: T2, purified bovine lung membrane-bound aminopeptidase P (Bos taurus, UniProt E1B735); assay: as above; assay type: biochemical; settings: bovine lung aminopeptidase P; cleavage of 0.5 μM Arg-Pro-Pro in 0.1M Hepes, pH 8.0 at 37° C.
# T2 construct: from tissue; host or cells: bovine lung
# T2 sequence (E1B735 22-673): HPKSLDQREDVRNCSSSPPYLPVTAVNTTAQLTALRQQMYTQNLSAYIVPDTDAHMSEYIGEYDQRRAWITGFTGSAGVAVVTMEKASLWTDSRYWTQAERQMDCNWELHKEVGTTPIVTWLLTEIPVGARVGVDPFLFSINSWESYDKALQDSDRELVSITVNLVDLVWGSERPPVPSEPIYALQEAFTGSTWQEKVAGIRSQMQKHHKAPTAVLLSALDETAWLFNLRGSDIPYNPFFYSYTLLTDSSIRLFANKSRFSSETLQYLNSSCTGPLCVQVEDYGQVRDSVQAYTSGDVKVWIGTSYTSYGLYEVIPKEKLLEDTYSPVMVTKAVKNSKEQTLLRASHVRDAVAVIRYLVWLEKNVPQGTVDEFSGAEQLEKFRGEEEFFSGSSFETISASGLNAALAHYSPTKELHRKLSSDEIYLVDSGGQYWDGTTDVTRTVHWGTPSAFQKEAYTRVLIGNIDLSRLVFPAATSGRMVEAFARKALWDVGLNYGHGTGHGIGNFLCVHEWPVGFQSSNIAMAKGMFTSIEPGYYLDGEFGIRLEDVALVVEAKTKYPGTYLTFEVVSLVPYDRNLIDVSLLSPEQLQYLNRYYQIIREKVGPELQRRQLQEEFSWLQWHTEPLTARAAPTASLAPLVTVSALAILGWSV
# Description: The IC50 of the compound of the present invention in relation to aminopeptidase P was also determined. […] The specificity of the compound of the present invention for other aminopeptidases was similarly determined as described in the Experimental Procedures herein. […] The following enzymes had IC50 values>800 μM: aminopeptidase A, angiotensin converting enzyme, dipeptidyl-peptidase I-like activity, bestatin-sensitive/amastatin-insensitive membrane dipeptidase (29), microsomal dipeptidase, endopeptidase 24.11, endopeptidase 24.15, and prolyl oligopeptidase.
# as §1
# Enzyme Kinetics--Aminopeptidase P activity was determined by measuring the release of arginine from Arg-Pro-Pro by a fluorescent assay described previously (14). […] Each mixture was run in duplicate. Aliquots were removed from each incubation mixture at various times and assayed for the amount of arginine present to determine the reaction velocity. In general, reaction velocities were calculated from data representing less than 20% cleavage of substrate. Ki and Ki ' (=αKi) were determined from plots of 1/v versus concentration of inhibitor "i" (26) and S/v versus concentration of inhibitor "i" (27), respectively. These parameters were also determined from the slope replot and 1/v-intercept replot, respectively, of the 1/v versus 1/S plot (28). See e.g., FIG. 1B. The values from the two treatments of the data were averaged for each experiment. Experiments for each enzyme preparation were performed twice and the results averaged.
# [4] = system: membrane-bound aminopeptidase P; assay: partially purified human lung membrane-bound aminopeptidase P in 0.1 M Hepes, pH 8.0; settings: 39° C.
# [5] = system: [3H]-bradykinin degradation in the isolated perfused rat lung; assay: [3H]-bradykinin degradation in the isolated perfused rat lung (HPLC of perfusate)
# Description: Using the procedure described herein, under Experimental Procedures it was determined that aminopeptidase P contributed to Bk degradation in the mammalian lung. In that procedure, [^3 H]-Bk (labelled in Pro^2 and Pro^3) was perfused through the isolated lung in the presence or absence of various peptidase inhibitors. The perfusate was then analyzed for radiolabelled products by HPLC. […] Most of the radioactivity (an average of 79%) was in the form of [^3 H]-Pro-Pro [Bk(2-3)] with the remainder being [^3 H]-Bk(1-5). It was hypothesized that pulmonary vascular aminopeptidase P was cleaving the Arg'-Pro^2 bond followed by rapid removal of Pro-Pro by dipeptidylpeptidase IV (DPP IV) (12). Simultaneously, angiotensin converting enzyme (ACE) was sequentially removing Phe-Arg and Ser-Pro from the C-terminus (13). […] However, most of the radioactivity remained in the Pro-Pro peak indicating substantial cleavage of Bk at the N-terminal end.
# Perfusion of the Isolated Rat Lung--Male Sprague Dawley rats, weighing 300-500 grams, were anesthetized with sodium pentobarbital (50-75 mg/kg) given by intraperitoneal injection. The trachea was cannulated and the lungs ventilated with air at 70 cycles per minute (Harvard Small Animal Ventilator) at a pressure of 70 mm H2 O. The heart and lungs were exposed via midsternal incision and 1000 units of heparin were administered intracardially. Polyethylene cannulae were secured into the pulmonary artery and the left ventricle. A modified Krebs buffer (118.5 mM NaCl, 4.7 mM KCl, 1.1 mM KH2 PO4, 1.1 mM MgSO4, 2.5 mM CaCl2, 19.6 mM NaHCO3, 5.6 mM dextrose), which was kept in a 50° C. water bath and aerated with 95% O2 -5% CO2 to pH 7.35, was perfused into the pulmonary artery at 35° C. and 2.6 ml/min (LKB Microperplex peristaltic pump). The buffer was circulated through the isolated lung in situ until the effluent was free of blood. The surgical field was maintained at 37° .C with a heat lamp throughout the procedure. Experiments were conducted by introducing [^3 H]-Bk in the presence or absence of test peptidase inhibitors into the pulmonary circulation via the pulmonary artery and then collecting perfusion effluent from the left ventricular cannula. […] The lung was then perfused with 1 μCi [^3 H]-Bk in 1 ml of the inhibitor solution (giving 16 nM Bk) followed by inhibitor solution alone. Effluent was collected in tubes (0.5 min/fraction) containing 150 μl of 2% TFA. For each lung preparation, 5-6 samples were perfused over a period of about one hour. Control perfusions of [^3 H]-Bk alone were always carried out before perfusions of samples containing ramiprilat because of the slow reversibility of inhibition of ACE by this compound. […] The effects of the latter two inhibitors were reversible.
# Separation and Identification of Bradykinin Metabolites--The fractions which were collected from each perfusion sample run were counted for radioactivity, and the fraction having the highest radioactive counts was prepared for HPLC by filtration through a Centricon-10 microconcentrator (Amicon). An aliquot of the filtrate containing 25000 dpm (approx. 25 μl) was spiked with a cocktail of unlabelled Bk fragments (3 μl) and then subjected to HPLC using a Waters Radial Compression Separation System with a 5μ NOVA PAK C18 Radial Pak Cartridge. The column was developed at a flow rate of 1 ml/min with a 60 min linear gradient from 100% Solvent A (0.1% TFA in water) to 75% Solvent A: 25% Solvent B (0.08% TFA in acetonitrile) using a Spectra Physics 8700XR Solvent Delivery System. The column effluent was simultaneously monitored for absorbance at 206 nm (LKB Uvicord S) and for radioactivity (Radiomatic Flo-One HS Radioactive Flow Detector using Ultima-Flo M scintillation fluid from Packard, Meriden, Conn.). […] Radioactive peaks were identified by comparison of the retention times to those of the unlabelled standards. […]
# T1 sequence (O43895 22-674): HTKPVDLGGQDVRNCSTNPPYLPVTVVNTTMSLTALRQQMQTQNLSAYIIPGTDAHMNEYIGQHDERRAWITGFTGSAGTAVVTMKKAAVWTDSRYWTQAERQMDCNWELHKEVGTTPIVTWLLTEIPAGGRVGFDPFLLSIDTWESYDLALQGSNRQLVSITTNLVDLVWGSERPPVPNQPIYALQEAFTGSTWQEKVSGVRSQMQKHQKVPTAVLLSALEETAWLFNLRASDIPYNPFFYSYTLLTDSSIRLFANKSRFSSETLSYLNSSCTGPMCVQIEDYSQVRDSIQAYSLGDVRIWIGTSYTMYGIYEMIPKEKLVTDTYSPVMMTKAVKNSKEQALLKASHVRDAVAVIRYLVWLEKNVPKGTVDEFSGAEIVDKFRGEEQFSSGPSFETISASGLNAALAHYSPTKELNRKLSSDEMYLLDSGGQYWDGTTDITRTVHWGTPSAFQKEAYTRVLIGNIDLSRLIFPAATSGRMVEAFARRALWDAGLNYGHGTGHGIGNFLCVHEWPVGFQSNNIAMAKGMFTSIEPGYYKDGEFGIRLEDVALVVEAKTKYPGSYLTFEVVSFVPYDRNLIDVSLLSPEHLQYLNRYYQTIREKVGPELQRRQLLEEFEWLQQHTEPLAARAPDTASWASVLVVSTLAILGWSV
compound,measurement,setting,value
"[2,3-Prolyl-3,4-^3 H(N)]-bradykinin",cleaved bond,[1],"rapid removal of Pro-Pro by dipeptidylpeptidase IV (DPP IV); also recorded: Pro7-Phe8; also recorded: removing Ser-Pro from the C-terminus (after Phe-Arg); also recorded: Arg1-Pro2, major; also recorded: [^3 H]-Pro-Pro arose by DPP IV cleavage of [^3 H]-Bk(2-9)"
same,fragment found,[1],"[^3 H]-Bk(1-5), major; also recorded: [^3 H]-Pro-Pro, minor"
same,not cleaved,[1],no [^3 H]-Bk(1-7) was observed in the perfusate
"CC(C)C[C@H](N)[C@@H](O)C(=O)N1CCC[C@H]1C(=O)N1CCC[C@H]1C(=O)N[C@@H](C)C(N)=O [(2R,3S), N-[(2R,3S)-3-amino-2-hydroxy-5-methylhexanoyl]-L-prolyl-L-prolyl-L-alaninamide]",IC50,[2],0.43 µM
same,IC50,[3],2.1 µM
Arg-Pro-Pro,cleaved bond,[4],Arg-Pro
"CC(C)C[C@@H](N)[C@H](O)C(=O)N[C@H](C(=O)N[C@H](C(=O)N[C@@H](CC(=O)O)C(=O)O)C(C)C)C(C)C [amastatin, [(2S, 3R)-3-amino-2-hydroxy-5-methylhexanoyl]-Val-Val-Asp]",effect on the pattern of metabolites,[5]; 100 μM along with ramiprilat in the perfusion medium (data not shown),no significant effect
"CC[C@H](C)[C@H](N)C(=O)N1CCC[C@H]1C(=O)N[C@H](C(=O)O)[C@@H](C)CC [diprotin A, Ile-Pro-Ile]",form of radioactivity eluted from the lung,[5]; diprotin A present along with ramiprilat (data not shown),most of the radioactivity eluted from the lung in the form of [^3 H]-Bk(2-9)
"CC(C)C[C@@H](N)[C@H](O)C(=O)N1CCC[C@H]1C(=O)N1CCC[C@H]1C(=O)N[C@@H](C)C(N)=O [(2S,3R), N-[(2S,3R)-3-amino-2-hydroxy-5-methylhexanoyl]-L-prolyl-L-prolyl-L-alaninamide]",IC50,[2],0.23 µM
same,IC50 relative to the IC50 of apstatin,[2]; versus apstatin […],approximately ten-fold
same,IC50,[3],4.5 µM
C[C@H](N[C@@H](CCc1ccccc1)C(=O)O)C(=O)N1[C@H](C(=O)O)C[C@@H]2CCC[C@@H]21 [ramiprilat],percentage of radioactivity eluting from the lung as intact [3H]-Bk,"[5]; ramiprilat (0.5 μM) alone in the perfusion medium, mean ± SEM, three rats",22±6% and 22%
same,fold increase of intact [3H]-Bk eluting from the lung,[5]; ramiprilat alone versus no inhibitor (unmeasurable levels),≥ 22 fold
